# Source: publication PMC4646072 (Chemistry (Weinheim an der Bergstrasse, Germany), 2015)
# Molecular target: AgtA (His6AgtA) (Dictyostelium discoideum, UniProt Q54RP0)
# Assay: radiometric galactosyl transfer from UDP-[3H]Gal
# Assay type: biochemical
# Conditions: 10 µM UDP-[3H]Gal, 60 min; acceptor substrate
# Chain of AgtA (His6AgtA) (Q54RP0 whole entry): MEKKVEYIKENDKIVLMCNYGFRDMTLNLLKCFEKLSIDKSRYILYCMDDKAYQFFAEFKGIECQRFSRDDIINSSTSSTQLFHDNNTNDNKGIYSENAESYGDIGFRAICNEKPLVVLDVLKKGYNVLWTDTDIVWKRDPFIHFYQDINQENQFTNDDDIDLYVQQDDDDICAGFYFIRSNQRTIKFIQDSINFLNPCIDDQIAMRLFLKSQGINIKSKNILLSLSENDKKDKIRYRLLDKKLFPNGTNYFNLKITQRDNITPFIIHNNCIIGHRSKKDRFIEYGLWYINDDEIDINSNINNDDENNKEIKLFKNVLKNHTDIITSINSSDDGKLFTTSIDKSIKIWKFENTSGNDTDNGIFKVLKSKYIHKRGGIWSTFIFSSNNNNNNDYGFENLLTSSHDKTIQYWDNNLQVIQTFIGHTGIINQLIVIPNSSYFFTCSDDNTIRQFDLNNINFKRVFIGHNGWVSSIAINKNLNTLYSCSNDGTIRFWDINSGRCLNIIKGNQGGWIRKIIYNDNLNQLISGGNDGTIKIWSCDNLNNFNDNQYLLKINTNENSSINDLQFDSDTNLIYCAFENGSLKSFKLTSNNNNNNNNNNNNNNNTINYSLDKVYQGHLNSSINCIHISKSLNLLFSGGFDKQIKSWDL
smiles,measurement,value
C[C@@H]1O[C@@H](Oc2ccc([N+](=O)[O-])cc2)[C@@H](O)[C@H](O)[C@@H]1O [F-pNP],radiometric galactosyl transfer from UDP-[3H]Gal,Comparison of AgtA activity towards F-pNP and FGGn-pNP
